Experimental data: patent US20260285853A1, “COMPOUNDS AND METHODS FOR MODULATING SPLICING” (REMIX THERAPEUTICS INC., priority 2023, published 2026)

Columns and labels:
Format in all cases: cell-based
[1] = test system: MYB mRNA; assay: Splicing RT-qPCR assay (THP), Table 2A; details: Table 2A (THP); for AC50: AJ mRNA increase, read-out: MYB AJ (increase in alternative junction mRNA, AC50); for IC50: CJ mRNA decrease, read-out: MYB CJ (decrease in canonical junction mRNA, IC50)
[2] = test system: HTT mRNA; assay: Splicing RT-qPCR assay (THP), Table 2A; details: Table 2A (THP); for AC50: AJ mRNA increase, read-out: HTT AJ (increase in alternative junction mRNA, AC50); for IC50: CJ mRNA decrease, read-out: HTT CJ (decrease in canonical junction mRNA, IC50)
[3] = test system: HTT mRNA; assay: Gene panel canonical junction qPCR assay, decrease in CJ mRNA, Table 3; details: decrease in canonical junction (CJ) mRNA, gene panel qPCR, Table 3
Method in brief: (§1)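 A673 cells were plated, left to adhere for 24 h, then dosed; K562 cells were plated in 96- or 384-well format and dosed directly. Both were incubated 24 h at 37 °C with an 11-point 3-fold series (top 10 uM final). Canonical junction mRNA was then read by cDNA synthesis and qPCR.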

[4] = test system: MYB mRNA; assay: as above; details: decrease in canonical junction (CJ) mRNA, gene panel qPCR, Table 3
Method in brief: as §1

[5] = test system: SH-SY5Y (human neuroblastoma) cells; assay: Cell viability, Cell Titer Glo 2.0 assay; details: read-out: Viability SHSY5Y.3 GI50
Method in brief: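 SH-SY5Y neuroblastoma cells are exposed to test compounds for 72 hours at 37 °C and 5% CO2, with final DMSO held at 0.1%. Cell viability is then measured with the CellTiter-Glo 2.0 assay.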

SMILES	AC50 [1]	IC50 [1]	AC50 [2]	IC50 [2]	IC50 [3]	IC50 [4]	GI50 [5]
Cc1cn2cc(NC(=O)c3ccc(N4CC5(CCNCC5)C4)c4cn(C)nc34)nc2c(C)n1 [Compound 562]	> 10000 nM	> 10000 nM	> 10 µM	> 10000 nM	> 10000 nM	> 10000 nM	> 10000 nM
Cc1cn2cc(NC(=O)c3ccc(N4CCC5(CCN5)CC4)c4cn(C)nc34)nc2c(C)n1 [Compound 563, 4-(1,7-diazaspiro[3.5]nonan-7-yl)-N-(6,8-dimethyl-imidazo[1,2-a]pyrazin-2-yl)-2-methyl-indazole-7-carboxamide]	100 to 1000 nM	100 to 1000 nM	> 10 µM	> 10000 nM	> 10000 nM	100 to 1000 nM	> 10000 nM
Cc1cn2cc(NC(=O)c3ccc(N(C)C4CCNCC4)c4cn(C)nc34)nc2c(C)n1 [Compound 564]	100 to 1000 nM	100 to 1000 nM	0.1 to 1 µM	100 to 1000 nM	100 to 1000 nM	100 to 1000 nM	100 to 1000 nM
Cc1cn2cc(NC(=O)c3ccc(OC4CCNCC4)c4cn(C)nc34)nc2c(C)n1 [Compound 565]	100 to 1000 nM	100 to 1000 nM	0.1 to 1 µM	100 to 1000 nM	100 to 1000 nM	100 to 1000 nM	100 to 1000 nM
COc1cc2nn(C)cc2cc1NC(=O)c1ccc(OC2CCNCC2)c2cn(C)nc12 [Compound 566]	100 to 1000 nM	100 to 1000 nM	1 to 10 µM	100 to 1000 nM	100 to 1000 nM	100 to 1000 nM	1000 to 10000 nM
COc1cc2nn(C)cc2cc1NC(=O)c1ccc(OC2CCNC2)c2cn(C)nc12 (stereo not drawn) [Compound 567]	100 to 1000 nM	100 to 1000 nM	1 to 10 µM	100 to 1000 nM	100 to 1000 nM	100 to 1000 nM	1000 to 10000 nM
COc1cc2nn(C)cc2cc1NC(=O)c1ccc(N2CCNC(C)C2)c2cn(C)nc12 (stereo not drawn) [Compound 568]	100 to 1000 nM	100 to 1000 nM	1 to 10 µM	100 to 1000 nM	100 to 1000 nM	100 to 1000 nM	1000 to 10000 nM
Cc1cn2cc(NC(=O)c3ccc(N4CCC(NC5CC5)CC4)c4cn(C)nc34)c(OC(C)C)c2c(C)n1 [Compound 569, 4-[4-(cyclopropylamino)-1-piperidyl]-N-(8-isopropoxy-1,3-dimethyl-pyrrolo[1,2-a]pyrazin-7-yl)-2-methyl-indazole-7-carboxamide]	> 10000 nM	> 10000 nM	> 10 µM	> 10000 nM	> 10000 nM	> 10000 nM	1000 to 10000 nM
Cc1cn2cc(NC(=O)c3ccc(N4CCC(NC5CC5)CC4)c4cn(C)nc34)cc2c(CNS(C)(=O)=O)n1 [Compound 570, 4-[4-(cyclopropyl-amino)-1-piperidyl]-N-[1-(methanesulfonamidometh-yl)-3-methyl-pyrrolo[1,2-a]-pyrazin-7-yl]-2-methyl-indazole-7-carboxamide]	> 10000 nM	> 10000 nM	> 10 µM	> 10000 nM	> 10000 nM	> 10000 nM	> 10000 nM
